Values of other authors in patent US10034825B2, “Luminate eye gel” (Jan Marini Skin Research, priority 2015, dated 2018).

Details: after penetration through the skin to the living cells

fraction converted to free tocopherol: about 5%
SMILES: CC(=O)Oc1c(C)c(C)c2c(c1C)CCC(C)(CCC[C@H](C)CCC[C@H](C)CCCC(C)C)O2 (stereo partly shown) [Tocopheryl acetate]
